Data set [1] concerns (multidrug-resistant, P-gp 170 overexpressing) KB-8511 epidermoid carcinoma cells. Description: Proliferation inhibition of KB-8511 cells (methylene blue staining). It is filed as cell-based, human. The settings on record: KB-8511 cell line (multidrug-resistant, P-gp 170 overexpressing), four days incubation with compound, repeated lines are separate determinations. The method, then: (§1) Stock solutions of the test compound of formula I 10 mM) in DMSO are prepared and stored at −20° C. Human KB-31 and (multidrug-resistant, P-gp 170 overexpressing) KB-8511 epidermoid carcinoma cells are from Dr. M. Baker, Roswell Park Memorial Institute (Buffalo, N.Y., USA) (for description see also Akiyama et al., Somat. Cell. Mol. Genetics 11, 117-126 (1985) und Fojo A., et al., Cancer Res. 45, 3002-3007 (1985)—KB-31 und KB-851 I both are derivatives of the KB-cell line (American Type Culture Collection) and are human epidermoid carcinoma cells. KB-31 cells can be cultivated in mono-layers using calf serum (M.A. Bio-products), L-glutamine (Flow), penicillin (50 Units/ml) und streptomycin (50 μg/ml (Flow); they then grow with a doubling rate of about 22 hours, and the relative efficiency of plating them out lies at about 60%. […] The cells are incubated at 37° C. in an incubator with 5% V/V CO2 and at 80% relative atmospheric humidity in MEM Alpha-medium which contains ribonucleosides und desoxyribonucleosides (Gibco BRL), complemented with 10 IU Penicillin, 10 μg/ml Streptomycin and 5% fetal calf serum. The cells are spread in an amount of 1.5×10^3 cells/well in 96-well-microtiter plates and incubated overnight. Serial dilutions of the test compounds in culture medium are added at day 1. The plates are then incubated for an additional period of four days, after which the cells are fixed using 3.3% v/v glutaraldehyde washed with water and finally stained with 0.05% w/v methylene blue. After washing again, the stain is eluted with 3% HCl and the optical density at 665 nm is measured with a SpectraMax 340 (Molecular Devices, Sunnyvale, Calif.). IC50-values are determined by mathematically fitting the data to curves using the SoftPro2.0 program (Molecular Devices, Sunnyvale, Calif.) and the formula […]/[(OD control)−(OD start)]×100.
(§2) The IC50 is defined as the concentration of a test compound at the end of the incubation period that leads to 50% of the number of cells in comparison to controls without test compound (concentration at halfmaximal inhibition of cell growth).
(§3) Proliferation inhibition (IC50) of epothilone derivatives (Examples 1-16) towards KB-31 and KB-8511 cell lines. Method as described above.

In data set [2] the test system is Human KB-31 epidermoid carcinoma cells. Kind of data set: Proliferation inhibition of KB-31 cells (methylene blue staining). It counts as cell-based. To be noted: KB-31 cell line, four days incubation with compound, repeated lines are separate determinations. The procedure: as §1, §2, §3

Here are results for 13 compounds from patent US7825141B2, “Epothilone derivatives” (Novartis AG, priority 2004, dated 2010).

Several values for one entry are separate records, joined by “and”; a condition that tells them apart may be missing. Identical values can stand only once.

Turning to `Cc1nc2cc([C@@H]3C[C@@H]4C[C@@H]4CCC[C@H](C)[C@H](O)[C@@H](C)C(=O)C(C)(C)[C@@H](O)CC(=O)O3)ccc2n1C` (stereo in doubt) [Example 15, 3-(1,2-Dimethyl-1H-benzoimidazol-5-yl)-7,11-dihydroxy-8,8,10,12-tetramethyl-4-oxa-bicyclo[14.1.0]heptadecane-5,9-dione], the IC50 turned out to be 1.01 nM in data set [1] (Homo sapiens, 96 h) and 0.467 nM in data set [2] (Homo sapiens, KB 3-1, 96 h).

Regarding `C/C1=C/C[C@@H](/C(C)=C/c2csc(C)n2)OC(=O)CCC(C)(C)C(=O)[C@H](C)[C@@H](O)[C@@H](C)CCC1` [Example 1, (Z)-(7R,8S,9S,16S)-8-Hydroxy-5,5,7,9,13-pentamethyl-16-[(E)-1-methyl-2-(2-methyl-thiazol-4-yl)-vinyl]-oxacyclohexadec-13-ene-2,6-dione], the IC50 in data set [1] (Homo sapiens, 96 h) is 75.4 nM; in data set [2] (Homo sapiens, KB 3-1, 96 h) it was 106 nM.

With `C/C(=C\c1csc(C)n1)[C@@H]1C[C@@H]2O[C@]2(C)CCC[C@H](C)[C@H](O)[C@@H](C)C(=O)C(C)(C)CCC(=O)O1` [Example 2, (1S,3S,10R,11S,12S,16R)-11-Hydroxy-8,8,10,12,16-pentamethyl-3-[(E)-1-methyl-2-(2-methyl-thiazol-4-yl)-vinyl]-4,17-dioxa-bicyclo[14.1.0]heptadecane-5,9-dione], the concentration for half-maximal inhibition (IC50) in data set [1] (Homo sapiens, 96 h) turned out to be 2.18 nM; in data set [2] (Homo sapiens, KB 3-1, 96 h), 5.12 nM.

On to `Cc1nc2cc([C@@H]3C/C=C\CCC[C@H](C)[C@H](O)[C@@H](C)C(=O)C(C)(C)CCC(=O)O3)ccc2n1C` [Example 3, 16-(1,2-Dimethyl-1H-benzoimidazol-5-yl)-8-hydroxy-5,5,7,9-tetramethyl-oxacyclohexadec-13-ene-2,6-dione], for which the concentration for half-maximal inhibition (IC50) in data set [1] (Homo sapiens, 96 h) turned out to be 50.4 nM; in data set [1], 62.3 nM; in data set [2] (Homo sapiens, KB 3-1, 96 h), 54.9 nM; in data set [2] it was 62 nM.

As to `Cc1nc2cc([C@@H]3C[C@@H]4O[C@@H]4CCC[C@H](C)[C@H](O)[C@@H](C)C(=O)C(C)(C)CCC(=O)O3)ccc2n1C` [Example 4, 3-(1,2-Dimethyl-1H-benzoimidazol-5-yl)-11-hydroxy-8,8,10,12-tetramethyl-4,17-dioxa-bicyclo[14.1.0]heptadecane-5,9-dione], the IC50 in data set [1] (Homo sapiens, 96 h) is 36.6 nM; in data set [1], 39.2 nM and 37.1 nM; in data set [2] (Homo sapiens, KB 3-1, 96 h) it was 6.56 nM; in data set [2] it was 7.95 nM and 7.65 nM.

`Cc1nc2cc([C@@H]3C[C@@H]4O[C@]4(C)CCC[C@H](C)[C@H](O)[C@@H](C)C(=O)C(C)(C)CCC(=O)O3)ccc2n1C` [Example 6, (1S,3S,10R,11S,12S,16R)-3-(1,2-Dimethyl-1H-benzoimidazol-5-yl)-11-hydroxy-8,8,10,12,16-pentamethyl-4,17-dioxa-bicyclo[14.1.0]heptadecane-5,9-dione]: the IC50 in data set [1] (Homo sapiens, 96 h) was less than 2 nM; in data set [1] it was 1.61 nM.

For the compound `Cc1nc2cc([C@@H]3C/C=C/CCC[C@H](C)[C@H](O)[C@@H](C)C(=O)C(C)(C)CCC(=O)O3)ccc2n1C` [Example 7, (E)-(7R,8S,9S,16S)-16-(1,2-Dimethyl-1H-benzoimidazol-5-yl)-8-hydroxy-5,5,7,9-tetramethyl-oxacyclohexadec-13-ene-2,6-dione], the IC50 worked out at 50.2 nM in data set [1] (Homo sapiens, 96 h); 49.9 nM in data set [1]; 39.1 nM in data set [2] (Homo sapiens, KB 3-1, 96 h); 41.9 nM in data set [2].

For the compound `Cc1nc2cc([C@@H]3C[C@@H]4O[C@H]4CCC[C@H](C)[C@H](O)[C@@H](C)C(=O)C(C)(C)CCC(=O)O3)ccc2n1C` [Example 8, (1S,3S,10R,11S,12S,16S)-3-(1,2-Dimethyl-1H-benzoimidazol-5-yl)-11-hydroxy-8,8,10,12-tetramethyl-4,17-dioxa-bicyclo[14.1.0]heptadecane-5,9-dione], the 50% inhibitory concentration (IC50) in data set [1] (Homo sapiens, 96 h) was 5.83 nM; in data set [2] (Homo sapiens, KB 3-1, 96 h) it was 2.76 nM.

With `Cc1nc2cc([C@@H]3C/C=C/CCC[C@H](C)[C@H](O)[C@@H](C)C(=O)C(C)(C)[C@@H](O)CC(=O)O3)ccc2n1C` [Example 11, (E)-(4S,7R,8S,9S,16S)-16-(1,2-Dimethyl-1H-benzoimidazol-5-yl)-4,8-dihydroxy-5,5,7,9-tetramethyl-oxacyclohexadec-13-ene-2,6-dione], the IC50 in data set [1] (Homo sapiens, 96 h) was 25.1 nM; in data set [1], 36.6 nM and 37 nM.

As to `Cc1nc2cc([C@@H]3C[C@@H]4O[C@H]4CCC[C@H](C)[C@H](O)[C@@H](C)C(=O)C(C)(C)[C@@H](O)CC(=O)O3)ccc2n1C` [Example 12, (1S,3S,7S,10R,11S,12S,16S)-3-(1,2-Dimethyl-1H-benzoimidazol-5-yl)-7,11-dihydroxy-8,8,10,12-tetramethyl-4,17-dioxa-bicyclo[14.1.0]heptadecane-5,9-dione], the IC50 in data set [1] (Homo sapiens, 96 h) was 1.45 nM; in data set [1], 1.67 nM and 0.96 nM; in data set [2] (Homo sapiens, KB 3-1, 96 h), 0.27 nM; in data set [2] it was 0.24 nM and 0.228 nM.

As to `Cc1nc2cc([C@@H]3C/C=C/CCC[C@H](C)[C@H](O)[C@@H](C)C(=O)C(C)(C)/C=C/C(=O)O3)ccc2n1C` [Example 13, (3E,13E)-(7R,8S,9S,16S)-16-(1,2-Dimethyl-1H-benzoimidazol-5-yl)-8-hydroxy-5,5,7,9-tetramethyl-oxacyclohexadeca-3,13-diene-2,6-dione], the IC50 in data set [1] (Homo sapiens, 96 h) was 74.1 nM; in data set [1], 68.8 nM and 73.5 nM; in data set [2] (Homo sapiens, KB 3-1, 96 h), 144 nM; in data set [2] it was 138 nM and 152 nM.

For the compound `Cc1nc2cc([C@@H]3C[C@@H]4O[C@H]4CCC[C@H](C)[C@H](O)[C@@H](C)C(=O)C(C)(C)/C=C/C(=O)O3)ccc2n1C` [Example 14, (E)-(1S,3S,10R,11S,12S,16S)-3-(1,2-Dimethyl-1H-benzoimidazol-5-yl)-11-hydroxy-8,8,10,12-tetramethyl-4,17-dioxa-bicyclo[14.1.0]heptadec-6-ene-5,9-dione], the IC50 turned out to be 12.4 nM in data set [1] (Homo sapiens, 96 h); 9.92 nM in data set [1]; 5 nM in data set [2] (Homo sapiens, KB 3-1, 96 h); 3.5 nM in data set [2].

As to `Cc1nc2cc([C@@H]3C[C@@H]4C[C@H]4CCC[C@H](C)[C@H](O)[C@@H](C)C(=O)C(C)(C)[C@@H](O)CC(=O)O3)ccc2n1C` [Example 16, (1S,3S,7S,10R,11S,12S,16R)-3-(1,2-Dimethyl-1H-benzoimidazol-5-yl)-7,11-dihydroxy-8,8,10,12-tetramethyl-4-oxa-bicyclo[14.1.0]heptadecane-5,9-dione], the IC50 in data set [1] (Homo sapiens, 96 h) stood at 0.11 nM; in data set [2] (Homo sapiens, KB 3-1, 96 h), 0.149 nM.

Broadly, the IC50 is the point on the concentration scale where inhibition reaches its midpoint.
